Measurements from publication PMC9029050, “The Effectiveness of Isoplumbagin and Plumbagin in Regulating Amplitude, Gating Kinetics, and Voltage-Dependent Hysteresis of erg-mediated K^+ Currents” (Biomedicines, 2022).

System: T1, erg-mediated K+ channel (Kerg, KV11)
T1 construct: gene Kcnh2; native channel in GH3 pituitary tumor cells
Assay: whole-cell patch clamp of native IK(erg) in GH3 cells
Format: cell-based

For `CC1=CC(=O)c2cccc(O)c2C1=O` [isoPLB, 8-hydroxy-2-methylnaphthalene-1,4-dione], the IC50 was 2.4 µM.
